Test results as given in US20230165980A1, “METHODS FOR RADIOLABELING PSMA BINDING LIGANDS AND THEIR KITS” (Novartis AG, priority 2020, published 2023).

Experiment: Radiochemical purity: non-complexed ^68Ga species by ITLC
Format: physicochemical
Procedure: Radiochemical Purity: Non-Complexed ^68Ga Species by ITLC
Radical Scavenger to be used for the improvement of the radiochemical stability of ^68Ga-PSMA-11, tests were performed according to a varied approach in order to consider all the parameters that may affect the radiochemical purity of the product (activity, pH, volume, amount of Gentisic Acid).
Stability tests were performed on the freeze dried product containing the final formulation. […] Kits manufactured with the final formulation, indeed, were stored at different stability conditions (2-8° C.; 25° C. and 40° C.) and were tested at different time points for API-assay, Radiochemical Purity and Radiochemical Stability of the radiolabelled product. […]

^68Ga-PSMA-11 [[^68Ga] Gallium PSMA-11]
[^68Ga] Not Complexed Species, iTLC (t0 h, Gentisic Acid 0 μg, IRE 17.19 mCi, 1 mL, pH 5.24): 0.00%
[^68Ga] Not Complexed Species, iTLC (t0 h, Gentisic Acid 200 μg, IRE 17.85 mCi, 1 mL, pH 5.22): 0.23%
[^68Ga] Not Complexed Species, iTLC (t0 h, Gentisic Acid 200 μg, IRE 18.07 mCi, 1 mL, pH 5.25): 0.00%
[^68Ga] Not Complexed Species, iTLC (t0 h, Gentisic Acid 200 μg, ITG 35.92 mCi, 4 mL, pH 4.83): 0.00%
[^68Ga] Not Complexed Species, iTLC (t0 h, Gentisic Acid 400 μg, IRE 17.44 mCi, 1 mL, pH 5.13): 0.00%
[^68Ga] Not Complexed Species, iTLC (t0 h, Gentisic Acid 400 μg, IRE 17.79 mCi, 1 mL, pH 5.11): 0.00%
[^68Ga] Not Complexed Species, iTLC (t0 h, Gentisic Acid 400 μg, ITG 16.9 mCi, 4 mL, pH 4.85): 0.00%
[^68Ga] Not Complexed Species, iTLC (t0 h, Gentisic Acid 400 μg, ITG 31.97 mCi, 4 mL, pH 4.81): 0.00%
[^68Ga] Not Complexed Species, iTLC (t0 h, Gentisic Acid 1000 μg, E&Z 15.65 mCi, 5 mL, pH 3.75): 0.00%
[^68Ga] Not Complexed Species, iTLC (t0 h, Gentisic Acid 1000 μg, IRE 17.1 mCi, 1 mL, pH 5.08): 0.00%
[^68Ga] Not Complexed Species, iTLC (t0 h, Gentisic Acid 1000 μg, ITG 30.9 mCi, 4 mL, pH 4.87): 0.00%
[^68Ga] Not Complexed Species, iTLC (t0 h, final formulation kit at Release, E&Z 15.65 mCi, 5 mL, pH 3.75): 0.00%
[^68Ga] Not Complexed Species, iTLC (t0 h, final formulation kit at Release, E&Z 16.80 mCi, 5 mL, pH 3.75): 0.51%
[^68Ga] Not Complexed Species, iTLC (t0 h, final formulation kit at Release, IRE 32.27 mCi, 1 mL, pH 4.95): 0.00%
[^68Ga] Not Complexed Species, iTLC (t0 h, final formulation kit at Release, IRE 32.95 mCi, 1 mL, pH 5.07): 0.00%
[^68Ga] Not Complexed Species, iTLC (t0 h, final formulation kit at Release, ITG 29.74 mCi, 4 mL, pH 4.67): 0.00%
[^68Ga] Not Complexed Species, iTLC (t0 h, final formulation kit at Release, ITG 30.90 mCi, 4 mL, pH 4.67): 0.00%
[^68Ga] Not Complexed Species, iTLC (t0 h, kit stored 3 months at 2-8° C., IRE 25.76 mCi, 1 mL, pH 5.29): 0.00%
[^68Ga] Not Complexed Species, iTLC (t0 h, kit stored 3 months at 25° C., IRE 24.56 mCi, 1 mL, pH 5.16): 0.00%
[^68Ga] Not Complexed Species, iTLC (t0 h, kit stored 3 months at 40° C., IRE 24.86 mCi, 1 mL, pH 5.23): 0.00%
[^68Ga] Not Complexed Species, iTLC (t0 h, kit stored 6 months at 2-8° C., IRE 19.90 mCi, 1 mL, pH 5.13): 0.00%
[^68Ga] Not Complexed Species, iTLC (t0 h, kit stored 6 months at 25° C., IRE 18.88 mCi, 1 mL, pH 5.09): 0.00%
[^68Ga] Not Complexed Species, iTLC (t0 h, kit stored 6 months at 40° C., IRE 19.34 mCi, 1 mL, pH 5.15): 0.00%
[^68Ga] Not Complexed Species, iTLC (t4 h, Gentisic Acid 0 μg, IRE 17.19 mCi, 1 mL, pH 5.24): 0.00%
[^68Ga] Not Complexed Species, iTLC (t4 h, Gentisic Acid 200 μg, IRE 17.85 mCi, 1 mL, pH 5.22): 0.00%
[^68Ga] Not Complexed Species, iTLC (t4 h, Gentisic Acid 200 μg, IRE 18.07 mCi, 1 mL, pH 5.25): 0.00%
[^68Ga] Not Complexed Species, iTLC (t4 h, Gentisic Acid 200 μg, ITG 35.92 mCi, 4 mL, pH 4.83): 0.00%
[^68Ga] Not Complexed Species, iTLC (t4 h, Gentisic Acid 400 μg, IRE 17.44 mCi, 1 mL, pH 5.13): 0.00%
[^68Ga] Not Complexed Species, iTLC (t4 h, Gentisic Acid 400 μg, IRE 17.79 mCi, 1 mL, pH 5.11): 0.00%
[^68Ga] Not Complexed Species, iTLC (t4 h, Gentisic Acid 400 μg, ITG 16.9 mCi, 4 mL, pH 4.85): 0.00%
[^68Ga] Not Complexed Species, iTLC (t4 h, Gentisic Acid 400 μg, ITG 31.97 mCi, 4 mL, pH 4.81): 0.00%
[^68Ga] Not Complexed Species, iTLC (t4 h, Gentisic Acid 1000 μg, E&Z 15.65 mCi, 5 mL, pH 3.75): 0.00%
[^68Ga] Not Complexed Species, iTLC (t4 h, Gentisic Acid 1000 μg, IRE 17.1 mCi, 1 mL, pH 5.08): 0.00%
[^68Ga] Not Complexed Species, iTLC (t4 h, Gentisic Acid 1000 μg, ITG 30.9 mCi, 4 mL, pH 4.87): 0.00%
[^68Ga] Not Complexed Species, iTLC (t4 h, final formulation kit at Release, E&Z 15.65 mCi, 5 mL, pH 3.75): 0.00%
[^68Ga] Not Complexed Species, iTLC (t4 h, final formulation kit at Release, E&Z 16.80 mCi, 5 mL, pH 3.75): 0.00%
[^68Ga] Not Complexed Species, iTLC (t4 h, final formulation kit at Release, IRE 32.27 mCi, 1 mL, pH 4.95): 0.00%
[^68Ga] Not Complexed Species, iTLC (t4 h, final formulation kit at Release, IRE 32.95 mCi, 1 mL, pH 5.07): 0.00%
[^68Ga] Not Complexed Species, iTLC (t4 h, final formulation kit at Release, ITG 29.74 mCi, 4 mL, pH 4.67): 0.00%
[^68Ga] Not Complexed Species, iTLC (t4 h, final formulation kit at Release, ITG 30.90 mCi, 4 mL, pH 4.67): 0.00%
[^68Ga] Not Complexed Species, iTLC (t4 h, kit stored 3 months at 2-8° C., IRE 25.76 mCi, 1 mL, pH 5.29): 0.00%
[^68Ga] Not Complexed Species, iTLC (t4 h, kit stored 3 months at 25° C., IRE 24.56 mCi, 1 mL, pH 5.16): 0.00%
[^68Ga] Not Complexed Species, iTLC (t4 h, kit stored 3 months at 40° C., IRE 24.86 mCi, 1 mL, pH 5.23): 0.00%
[^68Ga] Not Complexed Species, iTLC (t4 h, kit stored 6 months at 2-8° C., IRE 19.90 mCi, 1 mL, pH 5.13): 0.00%
[^68Ga] Not Complexed Species, iTLC (t4 h, kit stored 6 months at 25° C., IRE 18.88 mCi, 1 mL, pH 5.09): 0.00%
[^68Ga] Not Complexed Species, iTLC (t4 h, kit stored 6 months at 40° C., IRE 19.34 mCi, 1 mL, pH 5.15): 0.00%
